Measured values reported in ChEMBL document CHEMBL4308908, “Lamellarin-inspired potent topoisomerase I inhibitors with the unprecedented benzo[g][1]benzopyrano[4,3-b]indol-6(13H)-one scaffold” (Bioorg Med Chem, 2019).
Calls of active or inactive are those of the source. No cut-off for these calls is given here.

What was measured:
[1] = target: T1, DNA topoisomerase I (Bos taurus) (UniProt F1MN93); experiment: Inhibition of calf thymus DNA topoisomerase 1 assessed as reduction in enzyme-mediated relaxation of supercoiled pBR322 plasmid DNA at 10 uM after 30 mins by agarose gel electrophoresis
T1 sequence (whole entry): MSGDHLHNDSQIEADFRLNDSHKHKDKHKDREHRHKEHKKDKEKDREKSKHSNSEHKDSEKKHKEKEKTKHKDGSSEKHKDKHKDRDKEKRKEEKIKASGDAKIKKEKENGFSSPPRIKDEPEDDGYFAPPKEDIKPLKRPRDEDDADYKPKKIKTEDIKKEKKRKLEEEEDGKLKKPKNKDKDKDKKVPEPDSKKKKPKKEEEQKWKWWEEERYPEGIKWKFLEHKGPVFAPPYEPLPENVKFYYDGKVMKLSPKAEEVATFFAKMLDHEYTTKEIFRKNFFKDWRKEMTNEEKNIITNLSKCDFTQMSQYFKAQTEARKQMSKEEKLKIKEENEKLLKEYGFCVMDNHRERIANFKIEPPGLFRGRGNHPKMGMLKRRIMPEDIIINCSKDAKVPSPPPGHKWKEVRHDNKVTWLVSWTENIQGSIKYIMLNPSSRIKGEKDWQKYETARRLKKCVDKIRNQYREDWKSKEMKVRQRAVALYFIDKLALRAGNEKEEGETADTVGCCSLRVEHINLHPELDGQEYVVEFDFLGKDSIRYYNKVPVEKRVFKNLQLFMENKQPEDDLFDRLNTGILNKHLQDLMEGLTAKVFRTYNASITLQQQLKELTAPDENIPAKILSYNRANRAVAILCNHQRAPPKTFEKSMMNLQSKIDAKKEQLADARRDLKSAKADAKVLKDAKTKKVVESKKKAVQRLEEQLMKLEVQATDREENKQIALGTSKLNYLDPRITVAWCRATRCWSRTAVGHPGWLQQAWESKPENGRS

[2] = Antiproliferative activity against human BSY1 cells after 48 hrs by SRB assay; format: functional; conditions: BSY-1, 48 h
[3] = test system: MCF7; experiment: Antiproliferative activity against human MCF7 cells after 48 hrs by SRB assay; format: functional; conditions: MCF7, 48 h
[4] = test system: MDA-MB-231; experiment: Antiproliferative activity against human MDA-MB-231 cells after 48 hrs by SRB assay; format: functional; conditions: MDA-MB-231, 48 h
[5] = test system: U-251; experiment: Antiproliferative activity against human U251 cells after 48 hrs by SRB assay; format: functional; conditions: U-251, 48 h
[6] = test system: SF-268; experiment: Antiproliferative activity against human SF268 cells after 48 hrs by SRB assay; format: functional; conditions: SF-268, 48 h
[7] = test system: SF-295; experiment: Antiproliferative activity against human SF295 cells after 48 hrs by SRB assay; format: functional; conditions: SF-295, 48 h
[8] = test system: SF-539; experiment: Antiproliferative activity against human SF539 cells after 48 hrs by SRB assay; format: functional; conditions: SF-539, 48 h
[9] = test system: SNB-75; experiment: Antiproliferative activity against human SNB75 cells after 48 hrs by SRB assay; format: functional; conditions: SNB-75, 48 h
[10] = test system: SNB-78; experiment: Antiproliferative activity against human SNB78 cells after 48 hrs by SRB assay; format: functional; conditions: SNB-78, 48 h
[11] = test system: HCC 2998; experiment: Antiproliferative activity against human HCC2998 cells after 48 hrs by SRB assay; format: functional; conditions: HCC 2998, 48 h
[12] = test system: KM12; experiment: Antiproliferative activity against human KM12 cells after 48 hrs by SRB assay; format: functional; conditions: KM12, 48 h
[13] = test system: HT-29; experiment: Antiproliferative activity against human HT-29 cells after 48 hrs by SRB assay; format: functional; conditions: HT-29, 48 h
[14] = test system: HCT-15; experiment: Antiproliferative activity against human HCT15 cells after 48 hrs by SRB assay; format: functional; conditions: HCT-15, 48 h
[15] = test system: HCT-116; experiment: Antiproliferative activity against human HCT116 cells after 48 hrs by SRB assay; format: functional; conditions: HCT-116, 48 h
[16] = test system: NCI-H23; experiment: Antiproliferative activity against human NCI-H23 cells after 48 hrs by SRB assay; format: functional; conditions: NCI-H23, 48 h
[17] = test system: NCI-H522; experiment: Antiproliferative activity against human NCI-H522 cells after 48 hrs by SRB assay; format: functional; conditions: NCI-H522, 48 h
[18] = test system: A549; experiment: Antiproliferative activity against human A549 cells after 48 hrs by SRB assay; format: functional; conditions: A549, 48 h
[19] = test system: DMS-273; experiment: Antiproliferative activity against human DMS273 cells after 48 hrs by SRB assay; format: functional; conditions: DMS-273, 48 h
[20] = test system: DMS-114; experiment: Antiproliferative activity against human DMS114 cells after 48 hrs by SRB assay; format: functional; conditions: DMS-114, 48 h
[21] = test system: LOX IMVI; experiment: Antiproliferative activity against human LOXIMVI cells after 48 hrs by SRB assay; format: functional
[22] = test system: OVCAR-3; experiment: Antiproliferative activity against human OVCAR3 cells after 48 hrs by SRB assay; format: functional; conditions: OVCAR-3, 48 h
[23] = test system: OVCAR-4; experiment: Antiproliferative activity against human OVCAR4 cells after 48 hrs by SRB assay; format: functional; conditions: OVCAR-4, 48 h
[24] = test system: OVCAR-5; experiment: Antiproliferative activity against human OVCAR5 cells after 48 hrs by SRB assay; format: functional; conditions: OVCAR-5, 48 h
[25] = test system: OVCAR-8; experiment: Antiproliferative activity against human OVCAR8 cells after 48 hrs by SRB assay; format: functional; conditions: OVCAR-8, 48 h
[26] = test system: RXF 631; experiment: Antiproliferative activity against human RXF631L cells after 48 hrs by SRB assay; format: functional; conditions: RXF 631, 48 h
[27] = test system: ACHN; experiment: Antiproliferative activity against human ACHN cells after 48 hrs by SRB assay; format: functional
[28] = test system: St-4; experiment: Antiproliferative activity against human St-4 cells after 48 hrs by SRB assay; format: functional; conditions: St-4, 48 h
[29] = test system: MKN-1; experiment: Antiproliferative activity against human MKN1 cells after 48 hrs by SRB assay; format: functional; conditions: MKN-1, 48 h
[30] = test system: MKN-7; experiment: Antiproliferative activity against human MKN7 cells after 48 hrs by SRB assay; format: functional; conditions: MKN-7, 48 h
[31] = test system: MKN-74; experiment: Antiproliferative activity against human MKN74 cells after 48 hrs by SRB assay; format: functional; conditions: MKN-74, 48 h
[32] = test system: DU-145; experiment: Antiproliferative activity against human DU145 cells after 48 hrs by SRB assay; format: functional; conditions: DU-145, 48 h
[33] = test system: PC-3; experiment: Antiproliferative activity against human PC3 cells after 48 hrs by SRB assay; format: functional; conditions: PC-3, 48 h
[34] = Toxicity in mouse Colon 26 cells implanted BALB/c mouse assessed as induction of body weight loss at 50 mg/kg, iv administered every 2 days for 7 times starting 1 day after tumor implantation and measured daily until day 20; format: organism-based; conditions: in vivo

COc1cc2c(ccc3c4c(=O)oc5cc(OC(=O)[C@@H](N)C(C)C)c(OC)cc5c4n(C)c23)cc1OC(=O)[C@@H](N)C(C)C.O=C(O)C(F)(F)F.O=C(O)C(F)(F)F
inhibition [1]: Active | GI50 [2]: 0.038 µM | GI50 ([3]; read-out: GI50): 0.0061 µM | GI50 ([3]; read-out: pGI50 (converted)): 0.00617 µM | GI50 [4]: 0.148 µM | GI50 ([5]; read-out: GI50): 0.0034 µM | GI50 ([5]; read-out: pGI50 (converted)): 0.00339 µM | GI50 [6]: 0.00832 µM | GI50 [7]: 0.0129 µM | GI50 [8]: 0.00417 µM | GI50 [9]: 0.00832 µM | GI50 [10]: 0.282 µM | GI50 [11]: 0.0912 µM | GI50 [12]: 0.0575 µM | GI50 [13]: 0.955 µM | GI50 [14]: 0.0589 µM | GI50 ([15]; read-out: GI50): 0.015 µM | GI50 ([15]; read-out: pGI50 (converted)): 0.0155 µM | GI50 [16]: 0.0049 µM | GI50 ([17]; read-out: GI50): 0.0034 µM | GI50 ([17]; read-out: pGI50 (converted)): 0.00347 µM | GI50 [18]: 0.0525 µM | GI50 [19]: 0.00427 µM | GI50 [20]: 0.00436 µM | GI50 ([21]; read-out: GI50): 0.0025 µM | GI50 ([21]; read-out: pGI50 (converted)): 0.00251 µM | GI50 [22]: 0.0562 µM | GI50 [23]: 0.0363 µM | GI50 [24]: 0.0457 µM | GI50 [25]: 0.0135 µM | GI50 [26]: 1 µM | GI50 ([27]; read-out: GI50): 0.0029 µM | GI50 ([27]; read-out: pGI50 (converted)): 0.00288 µM | GI50 [28]: 1 µM | GI50 [29]: 0.0447 µM | GI50 [30]: 0.0525 µM | GI50 [31]: 0.0759 µM | GI50 ([32]; read-out: GI50): 0.0032 µM | GI50 ([32]; read-out: pGI50 (converted)): 0.00316 µM | GI50 [33]: 0.0708 µM | Activity [34]: Non-Toxic
